Assays:
rgRSV224 virus = assay: Antiviral activity: inhibition of rgRSV224 (GFP-expressing RSV) replication in HeLa cells, GFP expression read-out; format: cell-based, respiratory syncytial virus (RSV); conditions: human respiratory syncytial virus, HeLa, read-out: RSV HELA pEC50, rgRSV224 virus (MOI=1) in HeLa cells, GFP read-out (converted)
Description: (§1) Black 384-well clear-bottom microtiter plates (Corning, Amsterdam, The Netherlands) were filled via acoustic drop ejection using the echo liquid handler (Labcyte, Sunnyvale, Calif.). 200 nL of compound stock solutions (100% DMSO) were transferred to the assay plates. 9 serial 4-fold dilutions of compound were made, creating per quadrant the same compound concentration. The assay was initiated by adding 10 μL of culture medium to each well (RPMI medium without phenol red, 10% FBS-heat inactivated, 0.04% gentamycin (50 mg/mL). All addition steps are done by using a multidrop dispenser (Thermo Scientific, Erembodegem, Belgium). Next, rgRSV224 virus (MOI=1) diluted in culture medium was added to the plates. rgRSV224 virus is an engineered virus that includes an additional GFP gene (Hallak LK, Spillmann D, Collins PL, Peeples Me. Glycosaminoglycan sulfation requirements for respiratory syncytial virus infection; Journal of virology (2000), 74(22), 10508-13) and was in-licensed from the NIH (Bethesda, Md., USA). Finally, 20 μL of a HeLa cell suspension (3,000 cells/well) were plated. Medium, virus- and mock-infected controls were included in each test. The wells contain 0.05% DMSO per volume. Cells were incubated at 37° C. in a 5% CO2 atmosphere. Three days post-virus exposure, viral replication was quantified by measuring GFP expression in the cells by an in house developed MSM laser microscope (Tibotec, Beerse, Belgium). The EC50 was defined as the 50% inhibitory concentration for GFP expression. In parallel, compounds were incubated for three days in a set of white 384-well microtiter plates (Corning) and the cytotoxicity of compounds in HeLa cells was determined by measuring the ATP content of the cells using the ATPlite kit (Perkin Elmer, Zaventem, Belgium) according to the manufacturer's instructions. The CC50 was defined as the 50% concentration for cytotoxicity.

[1] = Cytotoxicity in HeLa cells, ATP content measured with the ATPlite kit; format: cell-based; conditions: human, TOX HELA pCC50
Description: as §1

SMILES	EC50 (rgRSV224 virus) [nM]	CC50 at 3 days [1] [µM]
CCc1cc(C(=O)N2CCCCC[C@H]2C)nc2cc(-c3ccc(C4[C@@H](C(=O)O)C4(F)F)cc3F)nn12 (mixture of isomers) [Compound O18]	191	53.7
CCc1cc(C(=O)N2CCCC3(CC=CC3)C2C)nc2cc(-c3ccc(-c4ccc(C(=O)O)cn4)cc3F)nn12 (racemic) [Compound F50]	324	60.3
CCc1cc(C(=O)N2CCc3ccsc3C2C)nc2cc(-c3ccc(-c4ccc(C(=O)O)cn4)cc3F)nn12 (racemic) [Compound F55]	120	> 100
CCc1cc(C(=O)N2CCn3c(Cl)ccc3C2C)nc2cc(-c3ccc(-c4ccc(C(=O)O)cn4)cc3F)nn12 (racemic) [Compound F56]	155	> 100
CCc1cc(C(=O)N2CCc3sc(C)cc3C2C)nc2cc(-c3ccc(-c4ccc(C(=O)O)cn4)cc3F)nn12 (racemic) [Compound F58]	170	26.3
CCc1cc(C(=O)N2CCCn3cccc3C2C)nc2cc(-c3ccc(-c4ccc(C(=O)O)cn4)cc3F)nn12 (racemic) [Compound F59]	191	> 25.1
CCc1cc(C(=O)N2CCn3cccc3C2C)nc2cc(-c3ccc4c(c3F)OCC(C(=O)O)=C4)nn12 (racemic) [Compound F61]	45.7	> 100
C[C@@H]1CCCCCN1C(=O)c1cc(C2(C)COC2)n2nc(-c3ccc4c(c3F)OCC(C(=O)O)=C4)cc2n1 (racemic) [Compound F62]	57.5	> 25.1
CC1c2ccsc2CCN1C(=O)c1cc(C2(C)CC2)n2nc(-c3ccc4c(c3F)OCC(C(=O)O)=C4)cc2n1 (racemic) [Compound F67]	39.8	67.6
C[C@@H]1c2ccccc2CCN1C(=O)c1cc(C2(C)CC2)n2nc(-c3ccc(C4C[C@H]4C(=O)O)cc3F)cc2n1 (mixture of isomers) [Compound O8]	11.7	49
C[C@@H]1CCCCCN1C(=O)c1cc(C2(C)CC2)n2nc(-c3cccc([C@H]4C[C@@H]4C(=O)O)c3F)cc2n1 (racemic) [Compound O9]	110	89.1
CCCC(C)N(CC)C(=O)c1cc(CC)n2nc(-c3ccc(C4C[C@H]4C(=O)O)cc3F)cc2n1 (mixture of isomers) [Compound O13]	141	45.7
CCc1cc(C(=O)N2CCCCC[C@H]2C)nc2cc(-c3ccc(N(C)[C@H]4C[C@H](C(=O)O)C4)cc3F)nn12 (racemic) [Compound W22]	45.7	87.1
CCc1cc(C(=O)N2CCCCC[C@H]2C)nc2cc(-c3ccc(-n4cc(C(=O)O)c(C)n4)cc3F)nn12 (racemic) [Compound W25]	93.3	66.1
CCCC(C)N(CC)C(=O)c1cc(CC)n2nc(-c3ccc([C@H]4C[C@@H]4C(=O)O)cc3F)cc2n1 (relative stereo) [Compound O14]	219	66.1
CCc1cc(C(=O)N2CCn3cccc3[C@H]2C)nc2cc(-c3ccc([C@H]4C[C@@H]4C(=O)O)cc3F)nn12 (relative stereo) [Compound O19]	30.9	91.2
CCc1cc(C(=O)N2CCCCC[C@H]2C)nc2cc(-c3ccc(C4C[C@H]4C(=O)O)cc3F)nn12 (single isomer, unassigned) [Compound O2]	58.9	> 25.1
CCc1cc(C(=O)N2CCCCCC2C)nc2cc(C3CCCCC3)nn12 (centres unmarked) [Compound A5]	4790	33.1
CCCCC(C)N(C)C(=O)c1cc(CC)n2nc(-c3ccccc3F)cc2n1 (centres unmarked) [Compound A17]	1510	40.7
CC1CCCCCN1C(=O)c1cc(CC2CCCCC2)n2nc(-c3ccccc3F)cc2n1 (centres unmarked) [Compound A20]	6310	> 25.1
CCCCc1nc(Cl)c(-c2cc3nc(C(=O)N4CCCCCC4C)cc(CC)n3n2)[nH]1 (centres unmarked) [Compound A22]	603	> 25.1
CCc1cc(C(=O)N2CCCCCC2C)nc2cc(-c3ccc(NS(=O)(=O)C4CC4)cc3F)nn12 (centres unmarked) [Compound D2]	603	> 50.1
CCc1cc(C(=O)N2CCCCCC2C)nc2cc(-c3cc(NC(=O)C4CC4)ccc3F)nn12 (centres unmarked) [Compound E12]	447	60.3
CCc1cc(C(=O)N2CCCCCC2C)nc2cc(-c3ccc(-c4cccnc4)cc3)nn12 (centres unmarked) [Compound F2]	2950	38.9
CCc1cc(C(=O)N2CCCCCC2C)nc2cc(-c3ccc(-c4cn[nH]c4)cc3F)nn12 (centres unmarked) [Compound F6]	355	> 25.1

SMILES	EC50 (rgRSV224 virus) [nM]	CC50 at 3 days [1] [µM]
CCc1cc(C(=O)N2CCCCCC2C)nc2cc(-c3ccc(-c4cnc(C)n4C)cc3F)nn12 (centres unmarked) [Compound F11]	1350	> 25.1
CCc1cc(C(=O)N2CCCCCC2C)nc2cc(-c3ccc(-c4cnn(C5CC5)c4)cc3F)nn12 (centres unmarked) [Compound F12]	1380	> 25.1
CCc1cc(C(=O)N2CCCCCC2C)nc2cc(-c3ccc(-c4cncn4C)cc3F)nn12 (centres unmarked) [Compound F13]	562	> 25.1
CCc1cc(C(=O)N2CCCCCC2C)nc2cc(-c3ccc(-c4c[nH]cn4)cc3F)nn12 (centres unmarked) [Compound F16]	145	> 25.1
CCc1cc(C(=O)N2CCCCC[C@H]2C)nc2cc(-c3ccc(-c4cnc(C(=O)O)c(F)c4)cc3F)nn12 [Compound F19]	97.7	36.3
CCc1cc(C(=O)N2CCc3ccccc3C2C)nc2cc(-c3ccc(-c4ccc(C(=O)O)nc4)cc3F)nn12 (centres unmarked) [Compound F22]	35.5	6.92
CCc1cc(C(=O)N2CCc3ccccc3[C@H]2C)nc2cc(-c3ccc(-c4ccc(C(=O)O)cn4)cc3F)nn12 [Compound F23]	40.7	> 25.1
CCc1cc(C(=O)N2CCCCC[C@H]2C)nc2cc(-c3ccc(-c4ccc(C(=O)O)nc4)cc3F)nn12 [Compound F24]	69.2	12.6
CCc1cc(C(=O)N2CCCCC[C@H]2C)nc2cc(-c3ccc(-c4ccnc(C(=O)O)c4)cc3F)nn12 [Compound F25]	43.7	13.5
C[C@@H]1CCCCCN1C(=O)c1cc(C2CCC2)n2nc(-c3ccc(-c4ccc(C(=O)O)cn4)cc3F)cc2n1 [Compound F32]	28.2	32.4
CCc1cc(C(=O)N2CCCCC[C@H]2C)nc2cc(-c3cc4ccc(C(=O)O)nc4cc3F)nn12 [Compound F33]	91.2	66.1
CCc1cc(C(=O)N2CCCCC[C@H]2C)nc2cc(-c3ccc([C@H]4CC[C@H](C(=O)O)CC4)cc3F)nn12 [Compound F37]	182	38
C[C@@H]1CCCCCN1C(=O)c1cc(C2CC2)n2nc(-c3ccc4c(c3F)OCC(C(=O)O)=C4)cc2n1 [Compound F38]	51.3	36.3
CCc1cc(C(=O)N2CCCCC[C@H]2C)nc2cc(-c3ccc4ccc(C(=O)O)nc4c3F)nn12 [Compound F45]	43.7	91.2
CCc1cc(C(=O)N2CCCCC[C@H]2C)nc2cc(-c3ccc(C4CC5(CC(C(=O)O)C5)C4)cc3F)nn12 (some centres unmarked) [Compound F47]	245	46.8
CCc1cc(C(=O)N2CCCCCC2C)nc2cc(-c3ccc(/C=C(\C)C(=O)O)cc3F)nn12 (centres unmarked) [Compound M13]	224	> 25.1
CNc1cc(C(=O)N2CCc3ccccc3[C@H]2C)nc2cc(-c3ccc(/C=C/C(=O)O)cc3F)nn12 [Compound M14]	24	15.8
CCc1cc(C(=O)N2CCc3ccccc3[C@H]2C)nc2cc(-c3ccc(/C=C/C(=O)O)cc3F)nn12 [Compound M15]	15.1	> 20.4
C[C@@H]1c2ccccc2CCN1C(=O)c1cc(N2CCCC2)n2nc(-c3ccc(/C=C/C(=O)O)cc3F)cc2n1 [Compound M16]	13.2	16.6
CCc1cc(C(=O)N2CCc3ccccc3C2C)nc2cc(-c3ccc(/C=C(\C)C(=O)O)cc3F)nn12 (centres unmarked) [Compound M17]	63.1	17.4
CCc1cc(C(=O)N2CCCc3ccccc3C2C)nc2cc(-c3ccc(/C=C/C(=O)O)cc3F)nn12 (centres unmarked) [Compound M18]	77.6	> 25.1
C[C@@H]1CCCCCN1C(=O)c1cc(C2CC2)n2nc(-c3cccc(/C=C/C(=O)O)c3F)cc2n1 [Compound M28]	93.3	17.8
CCc1cc(C(=O)N2CCCCC[C@H]2C)nc2cc(-c3ccc(/C=C/C(=O)O)c(OC)c3F)nn12 [Compound M32]	178	66.1
C[C@@H]1CCCCCN1C(=O)c1cc(C2(C)COC2)n2nc(-c3cccc(/C=C/C(=O)O)c3F)cc2n1 [Compound M33]	102	> 100

From US11084826B2, “RSV antiviral pyrazolo- and triazolo-pyrimidine compounds” (Janssen Sciences Ireland Unlimited Company, priority 2015, dated 2021)
